# Measurements as given in paper PMC12269843, “The molecular basis of T cell receptor recognition of citrullinated tenascin-C presented by HLA-DR4” (The Journal of Biological Chemistry, 2025).
# pIC50: −log10 of the molar value. Where a SMILES comes first, the peptide text is derived from it.
# Experiments:
# Test in all cases: Fluorescence polarization peptide competition assay
# [1] = molecular target: HLA-DRB1^∗04:04 (Homo sapiens, UniProt P01903+P01911, A100R/A169T/F76Y/I96L/K127E/L162R/M171V/N62H/P40V/Q125Y/R42H/S133A/S149N/S66Y/V209L/W38E); conditions: competition with 20 nM TAMRA-HA, 100 nM HLA-DRB1, 20 nM HLA-DM, 100 mM trisodium citrate pH 5.4, 50 mM NaCl, 5 mM EDTA, 37 °C, 24-72 h, two independent experiments in triplicate, read-out: IC50, competitive binding to DRB1^∗04:04
# Description: (§1) The fluorescent polarization was measured by PHERAstar microplate reader (BMG LABTECH) after 24 h, 48 h and 72 h incubation at 37 °C. The peptide binding curves were plotted by non-linear regression in Prism 10 (GraphPad Software, version 10.2.0) using a sigmoidal dose-response curve. […] All data were derived from two independent experiments in triplicate.
# [2] = molecular target: T1, HLA-DRB1^∗04:01 (Homo sapiens, UniProt P01903+P01911, A100K/A169T/F76Y/I96L/K127E/L162R/M171V/N62H/P40V/Q125Y/R42H/S133A/S149N/S66Y/V115G/V209L/W38E); conditions: competition with 20 nM TAMRA-HA, 100 nM HLA-DRB1, 20 nM HLA-DM, 100 mM trisodium citrate pH 5.4, 50 mM NaCl, 5 mM EDTA, 37 °C, 24-72 h, two independent experiments in triplicate, read-out: IC50, competitive binding to DRB1^∗04:01
# T1 construct: the extracellular domains of the α-chain and β-chain of HLA-DRB1^∗04:01; Fos/Jun leucine zipper (C); invariant chain (CLIP) peptide, covalently linked; made in house
# Description: as §1
# [3] = molecular target: HLA-DRB1^∗14:02 (Homo sapiens, UniProt P01903+P01911, A100R/A169T/D57E/F76Y/I96L/K41T/L162R/M171V/P40S/Q125H/Q178H/Q39Y/R42S/S66N/T262R/V115G/W38E/Y61H); conditions: competition with 20 nM TAMRA-HA, 100 nM HLA-DRB1, 20 nM HLA-DM, 100 mM trisodium citrate pH 5.4, 50 mM NaCl, 5 mM EDTA, 37 °C, 24-72 h, two independent experiments in triplicate, read-out: IC50, competitive binding to DRB1^∗14:02
# Description: as §1
# [4] = molecular target: HLA-DRB1^∗01:01 (Homo sapiens, UniProt P01903+P01911, A100R/D57E/F55L/F60I/F76Y/I96L/L162R/M171V/P40L/Q125E/R42F/V115G/Y59C); conditions: competition with 20 nM TAMRA-HA, 100 nM HLA-DRB1, 20 nM HLA-DM, 100 mM trisodium citrate pH 5.4, 50 mM NaCl, 5 mM EDTA, 37 °C, 24-72 h, two independent experiments in triplicate, read-out: IC50, competitive binding to DRB1^∗01:01
# Description: as §1
# [5] = molecular target: HLA-DRB1^∗04:05 (Homo sapiens, UniProt P01903+P01911, A100R/A169T/D86S/F76Y/I96L/K127E/L162R/M171V/N62H/P40V/Q125Y/R42H/S133A/S149N/S66Y/V115G/V209L/W38E); conditions: competition with 20 nM TAMRA-HA, 100 nM HLA-DRB1, 20 nM HLA-DM, 100 mM trisodium citrate pH 5.4, 50 mM NaCl, 5 mM EDTA, 37 °C, 24-72 h, two independent experiments in triplicate, read-out: IC50, competitive binding to DRB1^∗04:05
# Description: as §1
smiles,measurement,setting,value
"CC(C)C[C@H](NC(=O)[C@H](CCCNC(N)=O)NC(=O)[C@H](Cc1ccc(O)cc1)NC(=O)[C@H](CCCNC(N)=O)NC(=O)[C@@H](N)CC(=O)O)C(=O)N[C@@H](CC(N)=O)C(=O)N[C@@H](Cc1ccc(O)cc1)C(=O)N[C@@H](CO)C(=O)N[C@@H](CC(C)C)C(=O)N1CCC[C@H]1C(=O)N[C@H](C(=O)NCC(=O)O)[C@@H](C)O [TNC^1014,1016cit] (HELM PEPTIDE1{D.[Cit].Y.[Cit].L.N.Y.S.L.P.T.G}$$$$V2.0)",pIC50,[1],< 3.52
same,pIC50,[2],5.94
same,pIC50,[3],5.88
same,pIC50,[4],6.10
same,pIC50,[5],5.32
